We go through 9 compounds from patent US20260022143A1, “Cyclic Peptide Inhibitors of IL-23” (JANSSEN PHARMACEUTICA NV, priority 2022, published 2026).

For one series, the target named is T1, IL-23R (Homo sapiens, UniProt Q5VWK5).
T1 construct: host or cells: HEK293
T1 sequence (Q5VWK5 24-629): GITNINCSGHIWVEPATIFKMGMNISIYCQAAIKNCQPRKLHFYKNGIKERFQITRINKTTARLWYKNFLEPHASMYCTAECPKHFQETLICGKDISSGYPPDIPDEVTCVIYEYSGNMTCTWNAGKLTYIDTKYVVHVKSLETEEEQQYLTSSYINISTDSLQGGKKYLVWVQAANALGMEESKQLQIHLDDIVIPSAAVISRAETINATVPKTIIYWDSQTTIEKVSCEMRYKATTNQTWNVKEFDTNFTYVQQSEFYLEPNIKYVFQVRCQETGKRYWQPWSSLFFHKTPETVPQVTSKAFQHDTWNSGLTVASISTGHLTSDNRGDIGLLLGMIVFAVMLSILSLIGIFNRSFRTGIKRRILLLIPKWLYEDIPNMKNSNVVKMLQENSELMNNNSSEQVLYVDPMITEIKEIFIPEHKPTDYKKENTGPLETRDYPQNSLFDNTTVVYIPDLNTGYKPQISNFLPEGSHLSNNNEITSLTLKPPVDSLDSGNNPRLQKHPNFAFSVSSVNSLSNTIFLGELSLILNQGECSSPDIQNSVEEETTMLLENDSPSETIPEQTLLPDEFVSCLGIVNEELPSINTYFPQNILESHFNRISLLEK
Briefly: IL23R Reporter Assay. It is filed as cell-based. As to conditions: HEK293 cells containing IL-23R, IL-12RP1 and STAT-inducible firefly luciferase reporter; 10 ng/mL IL-23 (EC90); 5 h at 37° C.; read-out: IL23R Reporter Assay. On the technique in general: A reporter such as luciferase makes a cellular process visible.

The nature of series [1]: Exposed Polar Surface Area (EPSA). It is filed as physicochemical. As to conditions: SFC on Chirex 3014 column; sample 1 mM DMSO stock; read-out: EPSA. The gist of the method:
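EPSA, in Å^2, is read from SFC retention time through a linear relationship established with eight calibration standards. Separation uses a Chirex 3014 stationary phase, 35 °C, 14 MPa back pressure, and a 5–60% methanol/ammonium formate modifier gradient in CO2.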

Structures can show the parent of a compound that is named as a salt. Starred links: 1 amine or outer side, 2 acyl side, 3 side chain; linkers in the order of their positions; H or OH if unused. Positions of bridges follow the written chain, without caps; N, C: chain ends. Non-standard residues stand in square brackets, D forms with d. Residues, ends and D or L forms follow the SMILES beside them. Groups on a side chain read outwards from the residue. *: point of attachment. X27 = C[N+](C)(C)CCc1cn(-c2ccc(C[C@H](N[*:1])C(=O)[*:2])cc2)nn1; Me3N+(CH2)2O(CH2)2O(CH2)2CO = C[N+](C)(C)CCOCCOCCC(=O)*; Trp(7-Me) = Cc1cccc2c(C[C@H](N)C(=O)O)c[nH]c12; Decanoyl(3,6,9-trioxa) = COCCOCCOCC(=O)*; Lys(Me3) = C[N+](C)(C)CCCC[C@H](N)C(=O)O; γGlu = O=C(O)[C@H](CCC(=O)[*:2])N[*:1]; 2Nal = N[C@@H](Cc1ccc2ccccc2c1)C(=O)O; AEF = NCCOc1ccc(C[C@H](N)C(=O)O)cc1; X24 = C[N+](C)(CCN[*:1])CC(=O)[*:2]; 3Pal = N[C@@H](Cc1cccnc1)C(=O)O; Lys(Me) = CNCCCC[C@H](N)C(=O)O; X7 = COCCOCCOCCOCCOCCOCCC(=O)*; NMeK = CN[C@@H](CCCCN)C(=O)O; Pen = CC(C)(S)[C@H](N)C(=O)O; X44 = c1cc[n+](CCOCCOCC*)cc1; Lauroyl = CCCCCCCCCCCC(=O)*; X52 = C[N+](C)(C)CCOCCNCC*; Thp = NC1(C(=O)O)CCOCC1; Dap = NC[C@H](N)C(=O)O; X3 = C[N+](C)(C)CCCCC*; AEEA = NCCOCCOCC(=O)O; Me2NCH2CH2 = CN(C)CC*; Tfa = O=C(C(F)(F)F)*; Sar = CNCC(=O)O

As for `CC(=O)N(C)CCCC[C@@H]1NC(=O)[C@H](Cc2c[nH]c3c(C)cccc23)NC(=O)[C@H]([C@@H](C)O)NC(=O)[C@H](CC(=O)N(C)C)NC(=O)[C@@H](NC(=O)CCOCCOCC[N+](C)(C)C)C(C)(C)SSC(C)(C)[C@@H](C(=O)N[C@@H](Cc2ccc(OCCOCCOCC[n+]3ccccc3)cc2)C(=O)N[C@@H](Cc2ccc3ccccc3c2)C(=O)NC2(C(=O)N[C@@H](CCCCN(C)C(C)=O)C(=O)N[C@@H](CC(N)=O)C(=O)N[C@@H](Cc3cccnc3)C(=O)N(C)CC(=O)N(C)C)CCOCC2)NC1=O` [compound 297, cPEG3aCO-Pen(3)-N(N(Me)2)-T-7MeW-K(NMeAc)-Pen(3)-NPyPEG3F-2Nal-THP-K(NMeAc)-N-3Pya-Sar-CON(Me)2] ({Me3N+(CH2)2O(CH2)2O(CH2)2CO}-[Pen]D(NMe2)T[Trp(7-Me)][Lys(Me)](Ac)[Pen]Y(X44)[2Nal][Thp][Lys(Me)](Ac)N[3Pal][Sar]-NMe2; disulfide 1-6 (inferred)), the IC50 at IL-23R came to 1.8 nM. In addition, the EPSA in series [1] turned out to be 153 A^2.

Consider `CC(=O)NCCCC[C@@H]1NC(=O)[C@H](Cc2c[nH]c3c(C)cccc23)NC(=O)[C@H]([C@@H](C)O)NC(=O)[C@H](CC(N)=O)NC(=O)[C@@H](NC(=O)C(F)(F)F)C(C)(C)SSC(C)(C)[C@@H](C(=O)N[C@@H](Cc2ccc(OCCN)cc2)C(=O)N[C@@H](Cc2ccc3ccccc3c2)C(=O)NC2(C(=O)N[C@@H](CCCCNC(C)=O)C(=O)N[C@@H](CC(N)=O)C(=O)N[C@@H](Cc3cccnc3)C(=O)N(C)C)CCOCC2)NC1=O` [compound 63] (Tfa-[Pen]NT[Trp(7-Me)]K(Ac)[Pen][AEF][2Nal][Thp]K(Ac)N[3Pal]-NMe2; disulfide 1-6 (inferred)), for which the IC50 at IL-23R was determined as 25 nM. In addition, in series [1], the EPSA is 157 A^2.

`CC(=O)N(C)CCCC[C@@H]1NC(=O)[C@H](Cc2c[nH]c3c(C)cccc23)NC(=O)[C@H]([C@@H](C)O)NC(=O)[C@H](CC(=O)N(C)C)NC(=O)[C@@H](NC(=O)CCOCCOCC[N+](C)(C)C)C(C)(C)SSC(C)(C)[C@@H](C(=O)N[C@@H](Cc2ccc(-n3cc(CC[N+](C)(C)C)nn3)cc2)C(=O)N[C@@H](Cc2ccc3ccccc3c2)C(=O)NC2(C(=O)N[C@@H](CCCCN(C)C(C)=O)C(=O)N[C@@H](CC(N)=O)C(=O)N[C@@H](Cc3cccnc3)C(=O)N(C)CC(=O)N(C)C)CCOCC2)NC1=O` [compound 333, cPEG3aCO-Pen(3)-N(N(Me)2)-T-7MeW-K(NMeAc)-Pen(3)-F(4TzlTMA2)-2Nal-THP-K(NMeAc)-N-3Pya-Sar-CON(Me)2] ({Me3N+(CH2)2O(CH2)2O(CH2)2CO}-[Pen]D(NMe2)T[Trp(7-Me)][Lys(Me)](Ac)[Pen][X27][2Nal][Thp][Lys(Me)](Ac)N[3Pal][Sar]-NMe2; disulfide 1-6): the IC50 at IL-23R came to 1.8 nM. For the same compound, the EPSA in series [1] amounted to 159 A^2.

Consider `COCCOCCOCC(=O)NCC[N+](C)(C)CC(=O)N[C@@H]1C(=O)N[C@@H](CC(=O)N(C)C)C(=O)N[C@@H]([C@@H](C)O)C(=O)N[C@@H](Cc2c[nH]c3c(C)cccc23)C(=O)N[C@@H](CCCCN(C)C(C)=O)C(=O)N[C@H](C(=O)N[C@@H](Cc2ccc(OCCN)cc2)C(=O)N[C@@H](Cc2ccc3ccccc3c2)C(=O)NC2(C(=O)N[C@@H](CCC(=O)N(C)C)C(=O)N[C@@H](CC(N)=O)C(=O)N[C@@H](Cc3cccnc3)C(=O)N(C)CC(N)=O)CCOCC2)C(C)(C)SSC1(C)C` [compound 152, mPEG3CO-SP6-Pen(3)-N(N(Me)2)-T-7MeW-K(NMeAc)-Pen(3)-AEF-2Nal-THP-QNMe2-N-3Pya-Sar-CONH2] ({Decanoyl(3,6,9-trioxa)}-[X24][Pen]D(NMe2)T[Trp(7-Me)][Lys(Me)](Ac)[Pen][AEF][2Nal][Thp]E(NMe2)N[3Pal][Sar]-NH2; disulfide 2-7), for which, at IL-23R, the IC50 came to 1.6 nM. Further, the EPSA in series [1] was determined as 155 A^2.

`CC(=O)N(C)CCCC[C@@H]1NC(=O)[C@H](Cc2c[nH]c3c(C)cccc23)NC(=O)[C@H]([C@@H](C)O)NC(=O)[C@H](CC(=O)N(C)C)NC(=O)[C@@H](NC(=O)CCOCCOCC[N+](C)(C)C)C(C)(C)SSC(C)(C)[C@@H](C(=O)N[C@@H](Cc2ccc(OCCNCCOCC[N+](C)(C)C)cc2)C(=O)N[C@@H](Cc2ccc3ccccc3c2)C(=O)NC2(C(=O)N[C@@H](CCCCN(C)C(C)=O)C(=O)N[C@@H](CC(N)=O)C(=O)N[C@@H](Cc3cccnc3)C(=O)N(C)CC(=O)N(C)C)CCOCC2)NC1=O` [compound 238, cPEG3aCO-Pen(3)-N(N(Me)2)-T-7MeW-K(NMeAc)-Pen(3)-AEF(PEG2a)-2Nal-THP-K(NMeAc)-N-3Pya-Sar-CON(Me)2] ({Me3N+(CH2)2O(CH2)2O(CH2)2CO}-[Pen]D(NMe2)T[Trp(7-Me)][Lys(Me)](Ac)[Pen]Y(X52)[2Nal][Thp][Lys(Me)](Ac)N[3Pal][Sar]-NMe2; disulfide 1-6): the IC50 at IL-23R was 3.5 nM. The EPSA in series [1] was found to be 145 A^2.

Turning to `CCCCCCCCCCCC(=O)N[C@@H](CCC(=O)NCCOCCOCC(=O)NCCOCCOCC(=O)NCCCC[C@@H](C(N)=O)N(C)C(=O)[C@H](Cc1cccnc1)NC(=O)[C@H](CC(N)=O)NC(=O)[C@H](CCCCN(C)C(C)=O)NC(=O)C1(NC(=O)[C@H](Cc2ccc3ccccc3c2)NC(=O)[C@H](Cc2ccc(OCCCCC[N+](C)(C)C)cc2)NC(=O)[C@H]2NC(=O)[C@H](CCCCNC(C)=O)NC(=O)[C@H](Cc3c[nH]c4c(C)cccc34)NC(=O)[C@H]([C@@H](C)O)NC(=O)[C@H](CC(N)=O)NC(=O)[C@@H](NC(=O)CCOCCOCC[N+](C)(C)C)C(C)(C)SSC2(C)C)CCOCC1)C(=O)O` [compound 371, cPEG3aCO-Pen(3)-N-T-7MeW-K(Ac)-Pen(3)-TMAPF-2Nal-THP-K(NMeac)-N-3Pya-NMeK(PEG2PEG2gEC12)-CONH2] ({Me3N+(CH2)2O(CH2)2O(CH2)2CO}-[Pen]NT[Trp(7-Me)]K(Ac)[Pen]Y(X3)[2Nal][Thp][Lys(Me)](Ac)N[3Pal][NMeK]([AEEA-AEEA-γGlu-Lauroyl])-NH2; disulfide 1-6), the IC50 at IL-23R was 5.5 nM. Further, the EPSA in series [1] worked out at 182 A^2.

`COCCOCCOCCOCCOCCOCCC(=O)N[C@@H]1C(=O)N[C@@H](CC(N)=O)C(=O)N[C@@H]([C@@H](C)O)C(=O)N[C@@H](Cc2c[nH]c3c(C)cccc23)C(=O)N[C@@H](CCCCNC(C)=O)C(=O)N[C@H](C(=O)N[C@@H](Cc2ccc(OCCN)cc2)C(=O)N[C@@H](Cc2ccc3ccccc3c2)C(=O)NC2(C(=O)N[C@@H](CCCCNC(C)=O)C(=O)N[C@@H](CC(N)=O)C(=O)N[C@@H](Cc3cccnc3)C(=O)N(C)CC(N)=O)CCOCC2)C(C)(C)SSC1(C)C` [compound 64] (X7-[Pen]NT[Trp(7-Me)]K(Ac)[Pen][AEF][2Nal][Thp]K(Ac)N[3Pal][Sar]-NH2; disulfide 1-6 (inferred)): the IC50 on IL-23R was determined as 4.9 nM. The EPSA in series [1] worked out at 160 A^2.

For `CC(=O)N(C)CCCC[C@@H]1NC(=O)[C@H](Cc2c[nH]c3c(C)cccc23)NC(=O)[C@H]([C@@H](C)O)NC(=O)[C@H](CCCC[N+](C)(C)C)NC(=O)[C@@H](NC(=O)CCOCCOCC[N+](C)(C)C)C(C)(C)SSC(C)(C)[C@@H](C(=O)N[C@@H](Cc2ccc(OCCCCC[N+](C)(C)C)cc2)C(=O)N[C@@H](Cc2ccc3ccccc3c2)C(=O)NC2(C(=O)N[C@@H](CCCCN(C)C(C)=O)C(=O)N[C@@H](CC(N)=O)C(=O)N[C@@H](Cc3cccnc3)C(=O)N(C)CC(=O)N(C)C)CCOCC2)NC1=O` [compound 328, cPEG3aCO-Pen(3)-K(Me)3-T-7MeW-K(NMeAc)-Pen(3)-TMAPF-2Nal-THP-K(NMeAc)-N-3Pya-Sar-CON(Me)2] ({Me3N+(CH2)2O(CH2)2O(CH2)2CO}-[Pen][Lys(Me3)]T[Trp(7-Me)][Lys(Me)](Ac)[Pen]Y(X3)[2Nal][Thp][Lys(Me)](Ac)N[3Pal][Sar]-NMe2; disulfide 1-6), at IL-23R, the IC50 amounted to 1.2 nM. The EPSA in series [1] was 159 A^2.

On to `CC(=O)NC[C@H](NC(=O)C1(NC(=O)[C@H](Cc2ccc3ccccc3c2)NC(=O)[C@H](Cc2ccc(OCCN(C)C)cc2)NC(=O)[C@H]2NC(=O)[C@H](CCCCN(C)C(C)=O)NC(=O)[C@H](Cc3c[nH]c4c(C)cccc34)NC(=O)[C@H]([C@@H](C)O)NC(=O)[C@H](CC(=O)N(C)C)NC(=O)[C@@H](NC(C)=O)C(C)(C)SSC2(C)C)CCOCC1)C(=O)N[C@@H](CC(N)=O)C(=O)N[C@@H](Cc1cccnc1)C(=O)N(C)CC(=O)N(C)C` [compound 98, MeCO-Pen(3)-N(N(Me)2)-T-7MeW-K(NMeAc)-Pen(3)-AEF(N(Me)2)-2Nal-THP-Dap(Ac)-N-3Pya-Sar-CON(Me)2] (Ac-[Pen]D(NMe2)T[Trp(7-Me)][Lys(Me)](Ac)[Pen]Y(Me2NCH2CH2)[2Nal][Thp][Dap](Ac)N[3Pal][Sar]-NMe2; disulfide 1-6), for which the IC50 at IL-23R was 4.6 nM. In addition, in series [1], the EPSA was determined as 139 A^2.
